According to PMC12627933, “A First-In-Human Study of the SUMOylation Inhibitor Subasumstat in Patients with Advanced/Metastatic Solid Tumors or Relapsed/Refractory Hematologic Malignancies” (Cancer Research Communications, 2025):
Read-outs that look alike come from different tables or passages of the source.

How the values were obtained:
[1] = test system: MSS colorectal cancer and non-squamous NSCLC; design: method as in ref 18 = [18]; 18. Goel S , Ulahannan SV , Olszanski AJ , LoRusso P , Sanborn RE , Sharma S , . A phase 1b, multicenter, dose-escalation study of subasumstat (TAK-981) in combination with pembrolizumab in patients; conditions: in combination with pembrolizumab, cited from earlier work
IFNI pathway = IFNI pathway activation: IFNI gene signature in peripheral blood and plasma CXCL-10 (IP-10); type: in vivo, human
Description: Blood samples for subasumstat–SUMO adduct formation and SUMO2/3 inhibition assessments were collected before dose and at 1, 4, and 8 hours after the infusion on C1D1 and C1D8. Blood samples for additional biomarker analyses were collected before dose on C1D1 and C1D8 and at 4, 8, and 24 hours after infusion on C1D1 and C1D8. Skin biopsies (used as surrogate tissue for solid tumors) were collected at screening and on C1D8 at 2 hours (±30 minutes) after end of infusion, and tumor biopsies were collected at screening and cycle 2 day 8 (C2D8; +7 days; whenever possible). In blood samples, a custom flow cytometry assay was utilized for detecting target engagement and SUMOylated protein levels in lymphocytes (including T-, B-, and NK-cell subsets). The assay included a PE-conjugated antibody specifically recognizing the SUMO–subasumstat adduct (MIL-113, anti–cysteinyl-TAK-981, Epitomics; refs. [14], [15], [22]) and an AF488-conjugated antibody recognizing SUMO2/3 conjugates (MBL International, cat. #M114-3, RRID: AB_592769). Peripheral blood cells were lysed/fixed, permeabilized (BD Biosciences), and stained with MIL-113 and M114-3 and with antibodies against CD45, CD3, CD19, CD16/CD56, and CD14. […] Activation of the IFNI pathway was assessed in peripheral blood by analysis of gene expression data (PanCancer IO 360 panel by NanoString for phase I and whole-transcriptome RNA sequencing data for phase II). […] These seven IFNI-regulated genes were selected prior to the trial, based on in vitro studies of the effect of subasumstat on human blood from 10 healthy donors analyzed on the NanoString PanCancer IO 360 panel. Plasma chemokines and cytokines were measured using the MesoScale Discovery platform (pro-inflammatory and chemokine panels, BioAgilytix). […] Tumor PD-L1 expression level was assessed in paired tumor biopsies using the 22C3 PD-L1 IHC assay; combined positive score (CPS) was calculated for baseline and on-treatment tumor samples. The immune landscape in the tumor microenvironment (TME) was assessed using an integrated RNAscope and 27-marker MultiOmyx immunofluorescence panel.

[2] = Pharmacokinetics after 1-hour intravenous infusion (non-compartmental); type: in vivo, human; conditions: for half-life: across all dose levels, read-out: Terminal disposition phase half-life
Description: Subasumstat PK were evaluated after the first dose on C1D1 and cycle 1 day 8 (C1D8). The parameters included maximum observed plasma concentration (Cmax), time to first occurrence of Cmax, area under the plasma concentration–time curve from time 0 to the last measurable concentration (AUC0–t) or from time 0 extrapolated to time infinity (AUC0–∞), terminal disposition phase half-life, total clearance, and volume of distribution at steady state. PK parameters were estimated from concentration–time profiles for the PK analysis set, using non-compartmental methods, with Phoenix WinNonlin (RRID: SCR_024504).

Cc1sc(C(=O)c2cncnc2N[C@@H]2C[C@H](COS(N)(=O)=O)[C@@H](O)C2)cc1[C@@H]1NCCc2ccc(Cl)cc21 [subasumstat]
Antitumor activity ([1]; MSS colorectal cancer dose-expansion cohort): no activity was observed | Antitumor activity ([1]; relapsed/refractory MSS colorectal cancer and CPI-exposed non-squamous NSCLC, dose-escalation cohort): preliminary antitumor activity | Dose from which IFNI gene signature and plasma CXCL-10 (IP-10) were upregulated (IFNI pathway; both dosing schedules, phase I, dose-dependent): ≥ 40 mg | Recovery of IFNI gene signature and IP-10 (IFNI pathway; both markers): returned to baseline levels before dose on C1D8 | Time to increase of IP-10 plasma concentration after end of infusion (IFNI pathway; plasma): ≤ 24 h | Time of maximum plasma and blood concentrations ([2]; after dose (end of infusion), intravenous, C1D1 and C1D8, phase I): approximately 1 hour | Increase of Cmax, AUC0–t and AUC0–∞ with dose ([2]; dose range 3 to 120 mg, C1D1 and C1D8): approximately dose-proportional | half-life ([2]; human, intravenous, plasma): 3.35 to 9.31 h | clearance ([2]; human, intravenous, stated as lower in blood compared with plasma, matrix of the range not stated explicitly): 38.2 to 76 mL/min | Vd ([2]; human, intravenous, stated as lower in blood compared with plasma, matrix of the range not stated explicitly, read-out: Volume of distribution at steady state): 13.7 to 38.8 L | half-life ([2]; human, whole blood, intravenous, blood): 2.87 to 9.19 h | Accumulation in plasma after multiple administrations ([2]; phase II, 90 mg twice weekly, C1D4, C1D8, C2D1, C2D8 vs C1D1): no apparent accumulation
